Values quoted from earlier work in patent US20070014834A1, “Apparatus and methods of improved delivery of orally-administered therapeutic substances” (priority 2005, published 2007).

Tests used:
[1] = system: capsaicin-induced cough; details: for concentration of capsaicin required to produce a cough, compared with placebo: 10 healthy volunteers
[2] = system: citric acid-induced cough; details: guinea-pigs in vivo
[3] = system: guinea-pig vagus nerve
[4] = system: human vagus nerve

SMILES | concentration of capsaicin required to produce a cough, compared with placebo [1] | inhibition of citric acid-induced cough [2] | effectiveness in stopping persistent coughs compared with codeine ([1]; compared with codeine) | suppression of capsaicin-induced cough ([1]; randomized, double-blind, placebo-controlled study in man) | inhibition of capsaicin-induced sensory nerve depolarization [3] | inhibition of capsaicin-induced sensory nerve depolarization [4]
COc1ccc2c3c1O[C@H]1[C@@H](O)C=C[C@H]4[C@@H](C2)N(C)CC[C@@]341 [codeine] | only marginally higher |  |  |  |  | 
Cn1cnc2c1c(=O)[nH]c(=O)n2C [theobromine] | around one third higher | effectively inhibits | nearly a third more effective | suppresses | directly inhibits | directly inhibits
